Paper PMC11363324 (ACS Central Science, 2024)

What was measured:
[1] = tested on: C57BL/6J mice; assay: animal or person; assay type: in vivo; conditions: Mus musculus, sc, read-out: antinociception ED50 (and 95% CI)
[2] = tested on: C57BL/6J mice; conditions: mouse, in vivo

CN1CC[C@]23c4c5ccc(O)c4O[C@H]2[C@@H](O)C=C[C@H]3[C@H]1C5 [Morphine]
ED50 [1]: 4 mg/kg | withdrawal: jumping frequency vs saline ([2]; C57BL/6J): ****p < 0.0001 | withdrawal: teeth chattering frequency vs saline ([2]; C57BL/6J): ***p = 0.0003 | withdrawal: forepaw licking frequency vs saline [2]: significant | withdrawal: rearing frequency vs saline [2]: significant
